Source: patent publication US4241083A, “Germicidal composition for agriculture and horticulture” (priority 1978, dated 1980)

Key:
Erysiphe cichoracearum = test: Prevention effect for powdery mildew on eggplants (Ex. 23); assay type: in vivo; conditions: emulsion; for Germicidal damage to seedlings: eggplant seedlings; for Percentage of leaf area with disease spots / Percentage of leaves attacked with the disease / Prevention value per leaf (Perfect prevention = 100): third or ninth days, read fifteenth day after inoculation
Experimental: The emulsion was prepared by blending 25 g of ethyl 2-(2-hydroxyethylamino)-3-benzoylpropionate, 25 ml of isopropanol, 3 g of Demol T (formalin condensed naphthalenesulfonate available from Kao Sekken Inc.), 2 g of Emal 10 (sodium lauryl sulphate available from Kao Sekken Inc.) and 45 g of water.
The prevention effect of the emulsion prepared above for powdery mildew on eggplants caused by Erysiphe cichoracearum was examined in the following manner.
Eggplant seedlings of Shinkitsushin variety planted in sections in two rows of three were inoculated with the above germ by brushing on spores from other eggplant leaf attacked with the powdery mildew.
An aqueous solution of ethyl 2-(2-hydroxyethylamino)-3-benzoylpropionate (2000 ppm and 2500 ppm) was sprayed on the test plant on the third or ninth days after the seedlings were inoculated with the germ by means of glass sprayer.
(§1) The leaf area on which powdery mildew spots appeared was measured on the fifteenth day after the seedlings were inoculated with the germ. The spotted area is expressed as a prevention value.

[1] = Toxicity, LD50 for a mouse; conditions: in vivo
Toxicity, LD50 for a rat = conditions: in vivo
Sphaerotheca fuliginea = test: Prevention effect for powdery mildew on cucumbers (Ex. 20, 21); assay type: in vivo; conditions: Table 6; for Germicidal damage to seedlings: cucumber seedlings; for Percentage of leaf area with disease spots / Percentage of leaves attacked with the disease / Prevention value per leaf (Perfect prevention = 100): third and ninth days, read fifteenth day after inoculation
Experimental: The prevention effect for powdery mildew on cucumbers caused by Sphaerotheca fuliginea was examined in the following manner.
Cucumber seedlings (bifoliate age) of Tokiwa Hikari No. 3 (p type) variety planted in sections of two rows of three were inoculated with the above germ by brushing on spores from a cucumber leaf attacked with powdery mildew. […]
The leaf area on which powdery mildew spots appeared was measured on the fifteenth day after the seedlings were inoculated with the germ. The spotted area is expresses as a prevention value.
The same experiment as Example 20 was carried out except that isopropyl 2-(2-hydroxyethylamino)-3-benzoyl-propionate hydrochloride was used instead of ethyl 2-(2-hydroxyethylamino)-3-benzoylpropionate hydrochloride.

Valsa ceratosperma = test: Length of disease spots on cut apple branches immersed in germicide before inoculation (Ex. 16); assay type: in vivo; conditions: 25° C.
Experimental: Branches of Delicious apple (branch diameter: about 1 cm. thick) grown for 1-2 years were cut to 10 cm. length. The cut branches were dried in a low temperature chamber (3° C.) until the water content of the cut branches became 50%. The dried cut branches were immersed in an aqueous solution of ethyl 2-(2-hydroxyethylamino)-3-benzoylpropionate hydrochloride (500 ppm, 1000 ppm and 2500 ppm) for one minute and then dried.
Each cut branch was end bored by a white heated 8 mm diameter cork borer. Valsa ceratosperma, previously cultured for four days on a potato dextrose-agar culture medium, was introduced into the branch by inoculating the branch with the Valsa ceratosperma containing culture by means of the sterilized cork borer. The branches prepared in this way were placed on wet filter paper spread in a polyethylene tray. The tray was inserted into a polyethylene bag which was sealed and then the bag was put into a thermostat (25° C.) for various controlled times.
After removal from the thermostat, the length of disease spots on each branch was measured.
A similar experiment for comparison was carried out using Benomyl, i.e. methyl-1-(buthylcarbamoyl)-2-benzimidazole carbamate as the germicide. The results of the comparative experiment and also a control experiment, in which the dried cut branches were not immersed in germicide (blank), are also shown in Table 2.

apple canker = conditions: cited from earlier work
Sphaerotheca humuli = test: Prevention effect for powdery mildew on strawberries (Ex. 22); assay type: in vivo; conditions: for Germicidal damage to seedlings: strawberry seedlings; for Percentage of leaf area with disease spots / Percentage of leaves attacked with the disease / Prevention value per leaf (Perfect prevention = 100): third and ninth days, read fifteenth day after inoculation
Description: The prevention effect for powdery mildew on strawberries caused by Sphaerotheca humuli was examined in the following manner.
Strawberry seedlings (3-4 leaves) of Danar variety dug up and planted in a pot in two row of three without drying the roots was inoculated with the above germ by brushing on the spores from a strawberry leaves attacked with powdery mildew.
An aqueous solution of sec-butyl 2-(2-hydroxyethylamino)-3-benzoylpropionate hydrochloride was sprayed on the test plant on the third and ninth days after the seedlings were inoculated with the germ.
as §1

CCOC(=O)C(CC(=O)c1ccccc1)NCCO (stereo not drawn) [ethyl 2-(2-hydroxyethylamino)-3-benzoylpropionate]
Germicidal damage to seedlings (Erysiphe cichoracearum; 2000 ppm): none
Percentage of leaf area with disease spots (Erysiphe cichoracearum; 2000 ppm): 0%
Percentage of leaves attacked with the disease (Erysiphe cichoracearum; 2000 ppm): 0%
Prevention value per leaf (Perfect prevention = 100) (Erysiphe cichoracearum; 2000 ppm): 100
Germicidal damage to seedlings (Erysiphe cichoracearum; 2500 ppm): none
Percentage of leaf area with disease spots (Erysiphe cichoracearum; 2500 ppm): 0%
Percentage of leaves attacked with the disease (Erysiphe cichoracearum; 2500 ppm): 0%
Prevention value per leaf (Perfect prevention = 100) (Erysiphe cichoracearum; 2500 ppm): 100
LD50 [1]: 7600 mg/kg
LD50 (Toxicity, LD50 for a rat): 4790 mg/kg

CC(C)OC(=O)C(CC(=O)c1ccccc1)NCCO.Cl (stereo not drawn) [isopropyl 2-(2-hydroxyethylamino)-3-benzoyl-propionate hydrochloride]
Germicidal damage to seedlings (Sphaerotheca fuliginea; 1500 ppm): none
Percentage of leaf area with disease spots (Sphaerotheca fuliginea; 1500 ppm): 8.9%
Percentage of leaves attacked with the disease (Sphaerotheca fuliginea; 1500 ppm): 55.6%
Prevention value per leaf (Perfect prevention = 100) (Sphaerotheca fuliginea; 1500 ppm): 88.5
Germicidal damage to seedlings (Sphaerotheca fuliginea; 2000 ppm): none
Percentage of leaf area with disease spots (Sphaerotheca fuliginea; 2000 ppm): 0%
Percentage of leaves attacked with the disease (Sphaerotheca fuliginea; 2000 ppm): 0%
Prevention value per leaf (Perfect prevention = 100) (Sphaerotheca fuliginea; 2000 ppm): 100
Germicidal damage to seedlings (Sphaerotheca fuliginea; 2500 ppm): none
Percentage of leaf area with disease spots (Sphaerotheca fuliginea; 2500 ppm): 0%
Percentage of leaves attacked with the disease (Sphaerotheca fuliginea; 2500 ppm): 0%
Prevention value per leaf (Perfect prevention = 100) (Sphaerotheca fuliginea; 2500 ppm): 100

CCCCNC(=O)n1c(NC(=O)OC)nc2ccccc21 [methyl-1-(buthylcarbamoyl)-2-benzimidazole carbamate, reference compound]
Length of disease spot (Valsa ceratosperma; 500 ppm, after 3 days): 1.0 mm
Length of disease spot (Valsa ceratosperma; 500 ppm, after 5 days): 1.0 mm
Length of disease spot (Valsa ceratosperma; 500 ppm, after 7 days): 1.8 mm
Length of disease spot (Valsa ceratosperma; 1000 ppm, after 3 days): 0.5 mm
Length of disease spot (Valsa ceratosperma; 1000 ppm, after 5 days): 0.5 mm
Length of disease spot (Valsa ceratosperma; 1000 ppm, after 7 days): 1.0 mm
Length of disease spot (Valsa ceratosperma; 2500 ppm, after 3 days): 0 mm
Length of disease spot (Valsa ceratosperma; 2500 ppm, after 5 days): 0 mm
Length of disease spot (Valsa ceratosperma; 2500 ppm, after 7 days): 0 mm
effect after the canker attacks (apple canker): can only weakly prevent the progress of the disease

CCC(C)OC(=O)C(CC(=O)c1ccccc1)NCCO.Cl (stereo not drawn) [sec-butyl 2-(2-hydroxyethylamino)-3-benzoylpropionate hydrochloride]
Germicidal damage to seedlings (Sphaerotheca humuli; 1000 ppm): none
Percentage of leaf area with disease spots (Sphaerotheca humuli; 1000 ppm): 46.1%
Percentage of leaves attacked with the disease (Sphaerotheca humuli; 1000 ppm): 83.3%
Prevention value per leaf (Perfect prevention = 100) (Sphaerotheca humuli; 1000 ppm): 40.4
Germicidal damage to seedlings (Sphaerotheca humuli; 2000 ppm): none
Percentage of leaf area with disease spots (Sphaerotheca humuli; 2000 ppm): 0%
Percentage of leaves attacked with the disease (Sphaerotheca humuli; 2000 ppm): 0%
Prevention value per leaf (Perfect prevention = 100) (Sphaerotheca humuli; 2000 ppm): 100
Germicidal damage to seedlings (Sphaerotheca humuli; 3000 ppm): none
Percentage of leaf area with disease spots (Sphaerotheca humuli; 3000 ppm): 0%
Percentage of leaves attacked with the disease (Sphaerotheca humuli; 3000 ppm): 0%
Prevention value per leaf (Perfect prevention = 100) (Sphaerotheca humuli; 3000 ppm): 100

COC(=O)NC(=S)Nc1ccccc1NC(=S)NC(=O)OC [thiophanate methyl, 1,2-bis(3-methylcarbonyl-2-thioureido)]
effect after the canker attacks (apple canker): can only weakly prevent the progress of the disease
